Results: patent US7943653B2 (priority 2008, dated 2011)
pIC50: −log10 of the molar value. Like-named read-outs stand apart in the source and are kept apart here.

Tests used:
[1] = molecular target: T1, human CB1 receptor (Homo sapiens, UniProt P21554); experiment: Binding assay, cannabinoid CB1 receptor, [3H]-CP-55,940 displacement
T1 construct: expressed in transfected cells; host or cells: SK-N-MC cells, stably transfected with pcDNA3 CB-1 (human); semi-purified membrane pellet
Protocol: (§1) The human CB1 and CB2 receptors were stably expressed in SK-N-MC cells transfected with pcDNA3 CB-1 (human) or pcDNA3 CB-2 (human). The cells were grown in T-180 cell culture flasks under standard cell culture conditions at 37° C. in a 5% CO2 atmosphere. The cells were harvested by trysinization and homogenized in a homogenization buffer (10 mM Tris, 0.2 mM MgCl2, 5 mM KCl, with protease inhibitors aprotinin, leupeptin, pepstatin A and bacitracin) and centrifuged (2000 g). The supernatant was then centrifuged in 2M sucrose (31,300 g) to produce a semi-purified membrane pellet. The pellet was resuspended in homogenization and stored at −80° C.
(§2) On the day of the assay, the pellet was thawed on ice and diluted in assay buffer (50 mM Tris-HCl, 5 mM MgCl2, 2.5 mM EDTA, 0.5 mg/mL fatty acid free bovine serum albumin, pH 7.5). The diluted membrane pellet was added with buffer, either a test compound or vehicle standard and the radioligand [H]^3+-CP-55,940 (0.2 nM) to the wells of a 96-well polypropylene plate. Non-specific binding was measured in wells containing WIN 55,212 (10 uM). The plate was covered and incubated for 90 minutes at 30° C. The contents were then aspirated onto a Packard Unifilter GF/C filter bottom plate prewet with 0.5% polyethyleneimine. The wells of the polypropylene plate were rinsed and aspirated seven times with a 0.9% saline-0.5% Tween 20 solution. The Unifilter plate was dried, scintillation cocktail was added to each well and the counts representing binding were quantitated in a TopCount scintillation counter.
(§3) For compounds tested, an IC50 binding value was obtained from percent inhibition studies in which various test concentrations were used. The binding value was calculated by linear regression.
(§4) For compounds without an IC50 binding value, the percent inhibition (%) was obtained at a test concentration of ^a1.0 μM or ^b0.2 μM.

[2] = molecular target: T2, human CB2 receptor (Homo sapiens, UniProt P34972); experiment: Binding assay, cannabinoid CB2 receptor, [3H]-CP-55,940 displacement; settings: for inhibition at 1 µM / inhibition at 0.2 µM: read-out: Cannabinoid CB2 Receptor Binding, percent inhibition; for pIC50: membranes of SK-N-MC cells expressing human CB2, calculated by linear regression from percent inhibition at various concentrations
T2 construct: expressed in transfected cells; host or cells: SK-N-MC cells, stably transfected with pcDNA3 CB-2 (human); semi-purified membrane pellet
T2 sequence (P34972 whole entry): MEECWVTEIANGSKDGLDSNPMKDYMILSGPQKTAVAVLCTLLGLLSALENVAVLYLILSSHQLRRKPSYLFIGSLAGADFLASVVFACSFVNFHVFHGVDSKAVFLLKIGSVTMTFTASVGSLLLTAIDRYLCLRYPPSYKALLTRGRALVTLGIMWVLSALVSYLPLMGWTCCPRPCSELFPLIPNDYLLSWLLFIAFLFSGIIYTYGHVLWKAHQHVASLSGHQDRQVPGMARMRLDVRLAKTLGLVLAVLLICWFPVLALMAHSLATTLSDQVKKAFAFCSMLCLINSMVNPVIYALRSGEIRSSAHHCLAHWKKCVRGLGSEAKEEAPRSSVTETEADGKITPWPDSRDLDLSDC
Protocol: as §1, §2, §3, §4

[3] = membranes of SK-N-MC cells expressing human CB1, calculated by linear regression from percent inhibition at various concentrations, read-out: Cannabinoid CB1 Receptor Binding, IC50 binding value
[4] = read-out: Cannabinoid CB1 Receptor Binding, percent inhibition

T1 sequence (P21554 whole entry): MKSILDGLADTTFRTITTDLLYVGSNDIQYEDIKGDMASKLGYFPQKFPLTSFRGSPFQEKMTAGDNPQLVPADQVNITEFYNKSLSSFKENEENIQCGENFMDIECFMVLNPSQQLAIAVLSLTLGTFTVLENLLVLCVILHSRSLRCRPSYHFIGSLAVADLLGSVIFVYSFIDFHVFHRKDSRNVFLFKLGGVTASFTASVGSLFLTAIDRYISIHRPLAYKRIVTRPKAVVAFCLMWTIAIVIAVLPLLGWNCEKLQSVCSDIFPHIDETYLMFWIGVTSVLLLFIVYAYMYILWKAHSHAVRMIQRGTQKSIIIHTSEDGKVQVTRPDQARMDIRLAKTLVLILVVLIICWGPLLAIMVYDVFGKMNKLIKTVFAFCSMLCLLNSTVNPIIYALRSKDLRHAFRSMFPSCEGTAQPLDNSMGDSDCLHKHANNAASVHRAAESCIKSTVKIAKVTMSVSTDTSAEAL

Row | SMILES | pIC50 [1] | inhibition at 1 µM [2] [%] | pIC50 [1, 3] | further results
1 | CC(=Cc1ccc(Cl)cc1)c1c(C)c(C(=O)N[C@@H](C)C2CCCCC2)nn1-c1ccc(Cl)cc1Cl [Cpd 1, 5-[2-(4-chloro-phenyl)-1-methyl-vinyl]-1-(2,4-dichloro-phenyl)-4-methyl-1H-pyrazole-3-carboxylic acid [(1S)-1-cyclohexyl-ethyl]-amide] | 7.70 | 42 | – | –
2 | CC(=Cc1ccc(Cl)cc1)c1c(C)c(C(=O)N[C@@H](C)c2ccccc2)nn1-c1ccc(Cl)cc1Cl [Cpd 2, 5-[2-(4-chloro-phenyl)-1-methyl-vinyl]-1-(2,4-dichloro-phenyl)-4-methyl-1H-pyrazole-3-carboxylic acid [(1S)-1-phenyl-ethyl]-amide] | 7.70 | 32 | – | –
3 | CC(=Cc1ccc(Cl)cc1)c1c(C)c(C(=O)N[C@@H]2C(C)(C)[C@@H]3CC[C@]2(C)C3)nn1-c1ccc(Cl)cc1Cl [Cpd 3, 5-[2-(4-chloro-phenyl)-1-methyl-vinyl]-1-(2,4-dichloro-phenyl)-4-methyl-1H-pyrazole-3-carboxylic acid [(1R,2S,4R)-1,3,3-trimethyl-bicyclo[2.2.1]hept-2-yl]-amide] | 7.30 | 31 | – | –
4 | CC(=Cc1ccc(Cl)cc1)c1c(C)c(C(=O)NN2CCCCC2)nn1-c1ccc(Cl)cc1Cl [Cpd 4, 5-[2-(4-chloro-phenyl)-1-methyl-vinyl]-1-(2,4-dichloro-phenyl)-4-methyl-1H-pyrazole-3-carboxylic acid piperidin-1-ylamide] | 7.05 | – | – | pIC50 [2]: 5.77
5 | CC(=Cc1ccc(Cl)cc1)c1c(C)c(C(=O)NN2CCOCC2)nn1-c1ccc(Cl)cc1Cl [Cpd 5, 5-[2-(4-chloro-phenyl)-1-methyl-vinyl]-1-(2,4-dichloro-phenyl)-4-methyl-1H-pyrazole-3-carboxylic acid morpholin-4-ylamide] | – | – | 6.44 | pIC50 [2]: 5.70
6 | CC(=Cc1ccc(Cl)cc1)c1c(C)c(C(=O)NC2CCCCC2)nn1-c1ccc(Cl)cc1Cl [Cpd 6, 5-[2-(4-chloro-phenyl)-1-methyl-vinyl]-1-(2,4-dichloro-phenyl)-4-methyl-1H-pyrazole-3-carboxylic acid cyclohexylamide] | – | 40 | 6.89 | –
7 | CC(=Cc1ccc(Cl)cc1)c1c(C)c(C(=O)NC2CCCCC2C)nn1-c1ccc(Cl)cc1Cl (stereo not shown) [Cpd 7, 5-[2-(4-chloro-phenyl)-1-methyl-vinyl]-1-(2,4-dichloro-phenyl)-4-methyl-1H-pyrazole-3-carboxylic acid (2-methyl-cyclohexyl)-amide] | – | 55 | 6.96 | –
8 | CC(=Cc1ccc(Cl)cc1)c1c(C)c(C(=O)N[C@H](C)C2CCCCC2)nn1-c1ccc(Cl)cc1Cl [Cpd 8, 5-[2-(4-chloro-phenyl)-1-methyl-vinyl]-1-(2,4-dichloro-phenyl)-4-methyl-1H-pyrazole-3-carboxylic acid [(1R)-1-cyclohexyl-ethyl]-amide] | 6.51 | 39 | – | –
9 | CC(=Cc1ccc(Cl)cc1)c1c(C)c(C(=O)NCC2CCCCC2)nn1-c1ccc(Cl)cc1Cl [Cpd 9, 5-[2-(4-chloro-phenyl)-1-methyl-vinyl]-1-(2,4-dichloro-phenyl)-4-methyl-1H-pyrazole-3-carboxylic acid cyclohexylmethyl-amide] | – | 49 | 6.43 | –
10 | CC(=Cc1ccc(Cl)cc1)c1c(C)c(C(=O)Nc2ccccc2)nn1-c1ccc(Cl)cc1Cl [Cpd 10, 5-[2-(4-chloro-phenyl)-1-methyl-vinyl]-1-(2,4-dichloro-phenyl)-4-methyl-1H-pyrazole-3-carboxylic acid phenylamide] | – | 46 | 6.22 | –
11 | CC(=Cc1ccc(Cl)cc1)c1c(C)c(C(=O)N[C@H](C)c2ccccc2)nn1-c1ccc(Cl)cc1Cl [Cpd 11, 5-[2-(4-chloro-phenyl)-1-methyl-vinyl]-1-(2,4-dichloro-phenyl)-4-methyl-1H-pyrazole-3-carboxylic acid [(1R)-1-phenyl-ethyl]-amide] | 6.47 | 51 | – | –
12 | CC(=Cc1cccc(Cl)c1)c1c(C)c(C(=O)NN2CCCCC2)nn1-c1ccc(Cl)cc1Cl [Cpd 12, 5-[2-(3-chloro-phenyl)-1-methyl-vinyl]-1-(2,4-dichloro-phenyl)-4-methyl-1H-pyrazole-3-carboxylic acid piperidin-1-ylamide] | – | – | 6.60 | –
13 | CC(=Cc1cccc(Cl)c1)c1c(C)c(C(=O)NN2CCOCC2)nn1-c1ccc(Cl)cc1Cl [Cpd 13, 5-[2-(3-chloro-phenyl)-1-methyl-vinyl]-1-(2,4-dichloro-phenyl)-4-methyl-1H-pyrazole-3-carboxylic acid morpholin-4-ylamide] | – | – | – | inhibition at 1 µM [1, 4]: 53%
14 | CC(=Cc1cccc(Cl)c1)c1c(C)c(C(=O)N[C@@H](C)C2CCCCC2)nn1-c1ccc(Cl)cc1Cl [Cpd 16, 5-[2-(3-chloro-phenyl)-1-methyl-vinyl]-1-(2,4-dichloro-phenyl)-4-methyl-1H-pyrazole-3-carboxylic acid [(1S)-1-cyclohexyl-ethyl]-amide] | 6.48 | – | – | –
15 | CC(=Cc1cccc(Cl)c1)c1c(C)c(C(=O)N[C@@H](C)c2ccccc2)nn1-c1ccc(Cl)cc1Cl [Cpd 17, 5-[2-(3-chloro-phenyl)-1-methyl-vinyl]-1-(2,4-dichloro-phenyl)-4-methyl-1H-pyrazole-3-carboxylic acid [(1S)-1-phenyl-ethyl]-amide] | – | – | 6.60 | –
16 | CC(=Cc1cccc(Cl)c1)c1c(C)c(C(=O)N[C@H](C)C2CCCCC2)nn1-c1ccc(Cl)cc1Cl [Cpd 18, 5-[2-(3-chloro-phenyl)-1-methyl-vinyl]-1-(2,4-dichloro-phenyl)-4-methyl-1H-pyrazole-3-carboxylic acid [(1R)-1-cyclohexyl-ethyl]-amide] | 7.05 | – | – | –
17 | CC(=Cc1cccc(Cl)c1)c1c(C)c(C(=O)N[C@H](C)c2ccccc2)nn1-c1ccc(Cl)cc1Cl [Cpd 19, 5-[2-(3-chloro-phenyl)-1-methyl-vinyl]-1-(2,4-dichloro-phenyl)-4-methyl-1H-pyrazole-3-carboxylic acid [(1R)-1-phenyl-ethyl]-amide] | – | – | 6.43 | –
18 | CC(=Cc1ccc(Cl)cc1)c1c(C)c(C(=O)N[C@@H](C)C2CCCCC2)nn1-c1ccc(F)cc1F [Cpd 21, 5-[2-(4-chloro-phenyl)-1-methyl-vinyl]-1-(2,4-difluoro-phenyl)-4-methyl-1H-pyrazole-3-carboxylic acid [(1S)-1-cyclohexyl-ethyl]-amide] | – | – | 6.89 | –
19 | CC(=Cc1ccc(Cl)cc1)c1c(C)c(C(=O)N[C@H](C)c2ccccc2)nn1-c1ccc(F)cc1F [Cpd 23, 5-[2-(4-chloro-phenyl)-1-methyl-vinyl]-1-(2,4-difluoro-phenyl)-4-methyl-1H-pyrazole-3-carboxylic acid [(1R)-1-phenyl-ethyl]-amide] | – | – | 6.52 | –
20 | CC(=Cc1ccc(Cl)cc1)c1c(C)c(C(=O)N[C@H](C)C2CCCCC2)nn1-c1ccc(F)cc1F [Cpd 24, 5-[2-(4-chloro-phenyl)-1-methyl-vinyl]-1-(2,4-difluoro-phenyl)-4-methyl-1H-pyrazole-3-carboxylic acid [(1R)-1-cyclohexyl-ethyl]-amide] | – | – | 6.55 | –
21 | CNC(=O)c1nn(-c2ccc(Cl)cc2Cl)c(C(C)=Cc2ccc(Cl)cc2)c1C [Cpd 27, 5-[2-(4-chloro-phenyl)-1-methyl-vinyl]-1-(2,4-dichloro-phenyl)-4-methyl-1H-pyrazole-3-carboxylic acid methylamide] | – | – | – | inhibition at 0.2 µM [1, 4]: 11%; inhibition at 0.2 µM [2]: 18%
22 | CC[C@@H](C)NC(=O)c1nn(-c2ccc(Cl)cc2Cl)c(C(C)=Cc2ccc(Cl)cc2)c1C [Cpd 28, 5-[2-(4-chloro-phenyl)-1-methyl-vinyl]-1-(2,4-dichloro-phenyl)-4-methyl-1H-pyrazole-3-carboxylic acid [(R)-sec-butyl]-amide] | 7.15 | – | – | inhibition at 0.2 µM [2]: 21%
23 | CC[C@H](C)NC(=O)c1nn(-c2ccc(Cl)cc2Cl)c(C(C)=Cc2ccc(Cl)cc2)c1C [Cpd 29, 5-[2-(4-chloro-phenyl)-1-methyl-vinyl]-1-(2,4-dichloro-phenyl)-4-methyl-1H-pyrazole-3-carboxylic acid [(S)-sec-butyl]-amide] | – | – | – | inhibition at 0.2 µM [1, 4]: 52%; inhibition at 0.2 µM [2]: 9%
